The experiment has as its system neutrophils. Kind of experiment: TNF suppression of neutrophil apoptosis, kinase inhibitor pretreatment (initial studies). It counts as cell-based. The conditions noted are these: pretreatment with kinase inhibitor. The source says: δ-PKC has been identified as an important regulator of cytokine mediated anti-apoptotic and pro-inflammatory signaling in adherent neutrophils (Kilpatrick, L. E., et al. (2002) Am J Physiol Cell Physiol 283, C48-57; Kilpatrick, L. E., et al. (2004) Am J Physiol Cell Physiol 287, C633-42; Kilpatrick, L. E., et al. (2006) J Leukoc Biol. 80:1512-1521; Kilpatrick, L. E., et al. (2000) Am J Physiol Cell Physiol 279, C2011-8). Neutrophils undergo spontaneous apoptosis which can be suppressed in vitro by culturing cells in the presence of cytokines such as TNF (Kilpatrick, L. E., et al. (2002) Am J Physiol Cell Physiol 283, C48-57; Kilpatrick, L. E., et al. (2006) J Leukoc Biol. 80:1512-1521). […] Activation of caspases is one of the earliest markers of apoptosis occurring upstream of DNA fragmentation and PS externalization. Caspase 3 plays a critical role in spontaneous neutrophil apoptosis (Kilpatrick, L. E., et al. (2002) Am J Physiol Cell Physiol 283, C48-57; Daigle, I., Simon, H. U. (2001) Int Arch Allergy Immunol 126, 147-56; Scheel-Toellner, D., et al. (2004) Blood 104, 2557-64). […] However, recent reports have raised issues about the specificity of rottlerin as a δ-PKC inhibitor (Davies, S. P., et al. (2000) Biochem J 351, 95-105). To establish a role specifically for δ-PKC in the TNF-mediated anti-apoptotic signaling, a more specific inhibitor is required. […]

Each structure is given as a SMILES string.

Consider `CC(=O)c1c(O)c(C)c(O)c(Cc2c(O)c3c(c(C(=O)/C=C/c4ccccc4)c2O)OC(C)(C)C=C3)c1O` [rottlerin], for which the “suppression of neutrophil apoptosis by TNF” value was “inhibited”.
